Data: patent US6472433B2, “Method for treatment of inflammation with R-NSAIDS” (Loma Linda University Medical Center, priority 1999, dated 2002)

Columns and labels:
[1] = tested on: carrageenan-induced paw edema; details: cited from earlier work; for reduction of edema: dosage of 0.3 mg/kg, enantiomeric purity not disclosed
[2] = humans; cited from earlier work
[3] = tested on: carrageenan-induced paw edema; experiment: Carrageenan paw test (hind paw edema, plethysmometer); type: in vivo, male Long Evans derived rats; details: for Result (Reduction of Edema): 1 h before carrageenan, paw volume 3 h after injection
Protocol: In this test, the test compound is administered to several rats. Thereafter, a paw on each rat is injected with a solution of carrageenan in order to induce edema in the paw as a measure of inflammation. After three hours, the volume of the paw is measured using a plethysmometer. Reduction of edema by 30% or more, as compared to a control group which was not given the test compound, is considered indicative of anti-inflammatory activity.
This very pure form of R-flurbiprofen, was tested for anti-inflammatory activity by the carrageenan paw test. Seven groups of eight male Long Evans derived rats weighing 150±20 grams were fasted overnight. One hour after oral administration a suspension of the test substance in 2% Tween 80, as documented in Table 1 below, the right hind paw of each rat was injected intraplantarly with 0.1 ml of a 1% suspension of carrageenan. Three hours after injection, the hind paw volume was measured using a plethysmometer and recorded.

C[C@H](C(=O)O)c1ccc(-c2ccccc2)c(F)c1 [S-flurbiprofen, reference compound]
reduction of edema [1]: 64%

CCc1cccc2c3c([nH]c12)[C@@](CC)(CC(=O)O)OCC3 [R-etodolac]
S-enantiomer in circulation at steady state (formed by inversion of the R-enantiomer) [2]: 0%

O=C(c1ccccc1)c1ccc2n1CC[C@H]2C(=O)O [R-ketorolac]
S-enantiomer in circulation at steady state (formed by inversion of the R-enantiomer) [2]: 6%

C[C@@H](C(=O)O)c1ccc(-c2ccccc2)c(F)c1 [R-Flurbiprofen, R-flurbiprofen]
reduction of edema [1]: 18%
reduction in inflammation ([1]; highest dose, 2.5 mg/kg (not at 0.1, 0.3, 1 mg/kg)): statistically significant reduction in inflammation
S-enantiomer in circulation at steady state (formed by inversion of the R-enantiomer) [2]: 1.5%
Anti-Inflammatory Activity ([3]; 5 mg/kg oral): Yes (Reduction of edema by 30% or more, as compared to a control group which was not given the test compound, is considered indicative of anti-inflammatory activity)
Result (Reduction of Edema) ([3]; 5 mg/kg oral): 30%
Anti-Inflammatory Activity ([3]; 10 mg/kg oral): Yes (Reduction of edema by 30% or more, as compared to a control group which was not given the test compound, is considered indicative of anti-inflammatory activity)
Result (Reduction of Edema) ([3]; 10 mg/kg oral): 41%
Anti-Inflammatory Activity ([3]; 20 mg/kg oral): Yes (Reduction of edema by 30% or more, as compared to a control group which was not given the test compound, is considered indicative of anti-inflammatory activity)
Result (Reduction of Edema) ([3]; 20 mg/kg oral): 47%
Anti-Inflammatory Activity ([3]; 40 mg/kg oral): Yes (Reduction of edema by 30% or more, as compared to a control group which was not given the test compound, is considered indicative of anti-inflammatory activity)
Result (Reduction of Edema) ([3]; 40 mg/kg oral): 51%

CC(=O)Oc1ccccc1C(=O)O [Aspirin, reference compound]
Anti-Inflammatory Activity ([3]; 150 mg/kg oral): Yes (Reduction of edema by 30% or more, as compared to a control group which was not given the test compound, is considered indicative of anti-inflammatory activity)
Result (Reduction of Edema) ([3]; 150 mg/kg oral): 42%
